Patent US20220251163A1 (Sinopep-Allsino Biopharmaceutical Co., Ltd., priority 2019, published 2022)
Where two headings read alike, the source gives them in different places. *1 amine or outer side, *2 acyl side, *3 side chain or, on linkers, in order; H or OH if unused. Where a SMILES comes first, the peptide text is derived from it. Side-chain parts run from the residue outwards. [ ]: non-standard residue; d: D form. The star is where a group is joined. C18 diacid = O=C(O)CCCCCCCCCCCCCCCCC(=O)*; γGlu = O=C(O)[C@H](CCC(=O)[*:2])N[*:1]; AEEA = NCCOCCOCC(=O)O; Aib = CC(C)(N)C(=O)O

Legend:
ob/ob mice = assay: Blood glucose reducing experiment, single subcutaneous injection in ob/ob mice; format: in vivo; settings: 100 μg/kg single s.c.; for Blood glucose at different time after administration, 0 h: 0 h (before administration); for Blood glucose at different time after administration, 0 h / Blood glucose at different time after administration, 2 h / Blood glucose at different time after administration, 4 h / Blood glucose at different time after administration, 6 h / Blood glucose at different time after administration, 10 h / Blood glucose at different time after administration, 24 h / Blood glucose at different time after administration, 34 h / AUC0-24 h Glu: X ± s, n = 7; for AUC0-24 h Glu: blood glucose curve area within 24 h; for AUC0-24 h Glu Decrease rate: versus model control group;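 for all read-outs here: random blood glucose read at each time point, decrease rate given as percentage fall versus the model control group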
Experimental: The mice in each group received random blood glucose value measurement before (0 h) administration and 2, 4, 6, 10 and 24 h after administration, and then the time for measuring the random blood glucose was adjusted and prolonged to 34, 48, 58 or 72 h after administration according to the blood glucose condition of the mice in each group. Meanwhile, the random weight of the mice in each group before (0 h) administration and 24 h after administration was weighed, and then the random weight of the mice corresponding to the random blood glucose measurement condition 48 or 72 h after administration was weighed. The blood glucose decrease rate, the blood glucose curve area (AUC0-24 h Glu) within 24 h after administration and the decrease rate were calculated according to the following formula.
Blood glucose decrease rate=(blood glucose in the model control group−blood glucose in the administration group)/blood glucose in the model control group×100%
BG0, BG2, BG4, BG6, BG10 and BG24 represented the blood glucose values before administration (0 h) and 2, 4, 6, 10 and 24 h after administration respectively.
AUC0-24 h Glu(mmol/Lh·r) decrease rate=(model control group AUC0-24 h Glu−administration group AUC0-24 h Glu/model control group AUC0-24 h Glu×100%
Experiments were carried out twice, at an interval of 8-10 days.

[1] = Effect on random weight of ob/ob mice after single subcutaneous injection; format: in vivo; settings: 100 μg/kg single s.c., X ± s, n = 7
mGLP-1R = biological target: T1, mGLP-1R (Mus musculus, UniProt O35659); assay: GLP-1R agonist activity, cAMP in transfected HEK293 cells; format: cell-based
T1 construct: expressed in transfected cells; host or cells: HEK293
T1 sequence (O35659 22-463): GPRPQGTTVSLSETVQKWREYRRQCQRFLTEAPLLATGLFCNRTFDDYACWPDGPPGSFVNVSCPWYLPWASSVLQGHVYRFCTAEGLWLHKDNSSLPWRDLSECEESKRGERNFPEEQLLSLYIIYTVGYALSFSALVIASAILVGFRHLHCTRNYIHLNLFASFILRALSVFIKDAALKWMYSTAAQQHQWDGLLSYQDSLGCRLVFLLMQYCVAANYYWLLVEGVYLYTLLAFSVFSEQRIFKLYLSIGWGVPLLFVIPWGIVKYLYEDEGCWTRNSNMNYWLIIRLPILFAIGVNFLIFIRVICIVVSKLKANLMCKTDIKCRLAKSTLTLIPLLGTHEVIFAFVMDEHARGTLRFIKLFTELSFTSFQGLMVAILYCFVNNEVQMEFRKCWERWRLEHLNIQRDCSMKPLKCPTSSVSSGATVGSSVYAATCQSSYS
Experimental: HEK293 cells were co-transfected with cDNA encoding GLP-1R or GIPR. In a test for determining the compound, the cells were inoculated in a 96-well plate 2 h in advance, the polypeptide compound was dissolved with DMSO, and diluted to different multiples with a culture medium containing 0.1% bovine serum albumin and added to the co-transfected cells. After the cells were incubated for 20 min, fluorescence values were determined through microplate reader of an ELISA kit of the Cisbo Company, a standard curve was established to convert the fluorescence values into corresponding cAMP values, and the EC50 value of the compound was calculated through nonlinear regression of Graphpad Prism 5.0 software.

mGIPR = biological target: T2, mGIPR (Mus musculus, UniProt Q0P543); assay: GIPR agonist activity, cAMP in transfected HEK293 cells; format: cell-based
T2 construct: expressed in transfected cells; host or cells: HEK293
T2 sequence (Q0P543 19-460): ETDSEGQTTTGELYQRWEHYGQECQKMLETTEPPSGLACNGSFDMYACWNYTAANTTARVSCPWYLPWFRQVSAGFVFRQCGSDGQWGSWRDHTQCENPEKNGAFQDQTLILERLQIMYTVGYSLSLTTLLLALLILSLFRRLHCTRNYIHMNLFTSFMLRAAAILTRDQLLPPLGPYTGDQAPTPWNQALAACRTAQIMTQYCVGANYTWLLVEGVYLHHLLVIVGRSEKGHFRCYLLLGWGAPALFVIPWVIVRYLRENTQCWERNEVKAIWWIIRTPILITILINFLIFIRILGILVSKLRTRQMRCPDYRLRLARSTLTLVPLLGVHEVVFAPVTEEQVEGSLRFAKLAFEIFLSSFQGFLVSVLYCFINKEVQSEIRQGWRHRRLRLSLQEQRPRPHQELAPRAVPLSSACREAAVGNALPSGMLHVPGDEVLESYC
Experimental: HEK293 cells were co-transfected with cDNA encoding GLP-1R or GIPR. In a test for determining the compound, the cells were inoculated in a 96-well plate 2 h in advance, the polypeptide compound was dissolved with DMSO, and diluted to different multiples with a culture medium containing 0.1% bovine serum albumin and added to the co-transfected cells.

Row | SMILES | Blood glucose at different time after administration, 0 h (ob/ob mice) [mmol/L] | Decrease rate of blood glucose at different time after administration, 2 h (ob/ob mice) [%] | Blood glucose at different time after administration, 2 h (ob/ob mice) [mmol/L] | Decrease rate of blood glucose at different time after administration, 4 h (ob/ob mice) [%] | Blood glucose at different time after administration, 4 h (ob/ob mice) [mmol/L] | Decrease rate of blood glucose at different time after administration, 6 h (ob/ob mice) [%] | Blood glucose at different time after administration, 6 h (ob/ob mice) [mmol/L] | Decrease rate of blood glucose at different time after administration, 10 h (ob/ob mice) [%] | Blood glucose at different time after administration, 10 h (ob/ob mice) [mmol/L] | Decrease rate of blood glucose at different time after administration, 24 h (ob/ob mice) [%] | Blood glucose at different time after administration, 24 h (ob/ob mice) [mmol/L] | Decrease rate of blood glucose at different time after administration, 34 h (ob/ob mice) [%] | Blood glucose at different time after administration, 34 h (ob/ob mice) [mmol/L] | Decrease rate of blood glucose at different time after administration, 48 h (ob/ob mice) [%] | AUC0-24 h Glu (ob/ob mice) [mmol·h/L] | AUC0-24 h Glu Decrease rate (ob/ob mice) [%] | Changes of random body weight at different time after administration, 0 h [1] [g] | Random body weight at different time after administration, 0 h [1] [g] | Changes of random body weight at different time after administration, 24 h [1] [g] | Random body weight at different time after administration, 24 h [1] [g] | other results
1 | CC[C@H](C)[C@H](NC(=O)[C@H](CC(C)C)NC(=O)[C@H](Cc1c[nH]c2ccccc12)NC(=O)[C@H](CCC(N)=O)NC(=O)[C@@H](NC(=O)[C@H](Cc1ccccc1)NC(=O)[C@H](C)NC(=O)[C@H](CCCCNC(=O)COCCOCCNC(=O)COCCOCCNC(=O)CC[C@H](NC(=O)CCCCCCCCCCCCCCCCC(=O)O)C(=O)O)NC(=O)[C@H](CCC(N)=O)NC(=O)[C@H](C)NC(=O)[C@@H](NC(=O)[C@H](CCCCN)NC(=O)[C@H](CC(=O)O)NC(=O)[C@H](CC(C)C)NC(=O)C(C)(C)NC(=O)[C@@H](NC(=O)[C@H](CO)NC(=O)[C@H](Cc1ccc(O)cc1)NC(=O)[C@H](CC(=O)O)NC(=O)[C@H](CO)NC(=O)[C@@H](NC(=O)[C@H](Cc1ccccc1)NC(=O)[C@@H](NC(=O)CNC(=O)[C@H](CCC(=O)O)NC(=O)[C@H](C)NC(=O)[C@@H](N)Cc1ccc(O)cc1)[C@@H](C)O)[C@@H](C)O)[C@@H](C)CC)[C@@H](C)CC)C(C)C)C(=O)N[C@@H](C)C(=O)NCC(=O)NCC(=O)N1CCC[C@H]1C(=O)N[C@@H](CO)C(=O)N[C@@H](CO)C(=O)NCC(=O)N[C@@H](C)C(=O)N1CCC[C@H]1C(=O)N1CCC[C@H]1C(=O)N1CCC[C@H]1C(=O)N[C@@H](CO)C(N)=O [ID NO: 5] (H-YAEGTFTSDYSI[Aib]LDKIAQK([AEEA-AEEA-γGlu-C18 diacid])AFVQWLIAGGPSSGAPPPS-NH2) | 20.57 ± 0.84 | 50.8 | 10.12 ± 1.20 | 53.6 | 9.54 ± 0.84 | 54.2 | 9.43 ± 0.86 | 52.6 | 9.76 ± 0.96 | 47.1 | 10.89 ± 1.43 | 35.2 | 13.33 ± 2.10 | 15.8 | 252.25 ± 19.68 | 50.6 | 0.0 ± 0.0 | 43.5 ± 0.9 | -1.4 ± 0.2 | 42.0 ± 0.9 | Changes of random body weight at different time after administration, 48 h [1]: -0.6 ± 0.2 g; Random body weight at different time after administration, 48 h [1]: 42.9 ± 0.9 g; EC50 (mGLP-1R; HEK293 cells transfected with GLP-1R, cAMP, 20 min incubation, read-out: mGLP-1R EC50): 2.99 pM; EC50 (mGIPR; HEK293 cells transfected with GIPR, cAMP, 20 min incubation, read-out: mGIPR EC50): 6.4 pM
2 | CC[C@H](C)[C@H](NC(=O)[C@H](CCCCN)NC(=O)[C@H](CC(=O)O)NC(=O)[C@H](CC(C)C)NC(=O)[C@H](C)NC(=O)[C@@H](NC(=O)[C@H](CO)NC(=O)[C@H](Cc1ccc(O)cc1)NC(=O)[C@H](CC(=O)O)NC(=O)[C@H](CO)NC(=O)[C@@H](NC(=O)[C@H](Cc1ccccc1)NC(=O)[C@@H](NC(=O)CNC(=O)[C@H](CCC(=O)O)NC(=O)[C@H](C)NC(=O)[C@@H](N)Cc1ccc(O)cc1)[C@@H](C)O)[C@@H](C)O)[C@@H](C)CC)C(=O)N[C@@H](C)C(=O)N[C@@H](CCC(N)=O)C(=O)N[C@@H](CCCCNC(=O)COCCOCCNC(=O)COCCOCCNC(=O)CC[C@H](NC(=O)CCCCCCCCCCCCCCCCC(=O)O)C(=O)O)C(=O)N[C@@H](C)C(=O)N[C@@H](Cc1ccccc1)C(=O)N[C@H](C(=O)N[C@@H](CCC(N)=O)C(=O)N[C@@H](Cc1c[nH]c2ccccc12)C(=O)N[C@@H](CC(C)C)C(=O)N[C@H](C(=O)N[C@@H](C)C(=O)NCC(=O)NCC(=O)N1CCC[C@H]1C(=O)N[C@@H](CO)C(=O)N[C@@H](CO)C(=O)NCC(=O)N[C@@H](C)C(=O)N1CCC[C@H]1C(=O)N1CCC[C@H]1C(=O)N1CCC[C@H]1C(=O)N[C@@H](CO)C(N)=O)[C@@H](C)CC)C(C)C [ID NO: 4] | 20.43 ± 0.68 | 50.0 | 10.21 ± 1.06 | 51.6 | 9.89 ± 0.83 | 52.9 | 9.63 ± 0.95 | 51.7 | 9.86 ± 0.96 | 46.1 | 11.01 ± 0.83 | 28.7 | 14.56 ± 1.42 | 15.2 | 255.33 ± 20.13 | 50.0 | 0.0 ± 0.0 | 43.6 ± 1.0 | -1.4 ± 0.2 | 42.2 ± 1.0 | Changes of random body weight at different time after administration, 48 h [1]: -0.6 ± 0.1 g; Random body weight at different time after administration, 48 h [1]: 42.9 ± 1.1 g; EC50 (mGLP-1R): 1.49 pM; EC50 (mGIPR): 5.21 pM
